Test results: patent US10881718B2, “Bifunctional conjugate compositions and associated methods” (priority 2010, dated 2021)
Non-standard residues stand in square brackets, D forms with d. No end group written: not given here. Ahx = NCCCCCC(=O)O

Tests used:
TNF-α = test: Plasma cytokine analysis (ELISA) in EAE mice: TNF-α; type: in vivo, SJL/J mice; conditions: day 6; PBS 1.8 pg/mL
Procedure: (§2) Blood samples were taken from each mouse via mandibular bleeds (˜100 uL) on days 0, 6, 12, 18, 25. To ensure there was enough sample to perform ELISA cytokine testing blood from, two mice within the same group was pooled at each time point for a total of four samples per group. Samples were collected in heparin-containing tubes and centrifuged to separate red blood cells. Plasma was collected and sent for cytokine analysis to the Cytokine Core Laboratory at the University of Maryland. The cytokines analyzed were IL-2, IL-4, IL-10, IL-17, TNF-α, and TGF-β.

[1] = system: EAE model induced in SJL/J mice; test: Suppression of EAE by SAgAs and NP-Arrays (Example 1); type: in vivo; conditions: PLP conc. 100 nMol (100* for LABL-only arrays); s.c. days 4, 7, 10
Procedure: (§1) Induction of EAE and Therapeutic Study.
SJL/J (H-2s) female mice, 4-6 weeks old, were purchased from The Jackson Laboratory and housed under specified, pathogen-free conditions at The University of Kansas. All protocols involving live mice were approved by the Institutional Animal Care and Use Committee. Mice were immunized subcutaneously (s.c) with […] of PLP139-151 in a 0.2 mL emulsion composed of equal volumes of phosphate-buffered saline (PBS) and complete Freund's adjuvant (CFA) containing killed Mycobacterium tuberculosis strain H37RA (final concentration of 4 mg/mL; Difco). The PLP139-151/CFA was administered to regions above the shoulders and the flanks (total of four sites; 50 μL at each injection site). In addition, 200 ng/100 μL of pertussis toxin (List Biological Laboratories Inc.) was injected intraperitoneally (i.p.) on the day of immunization (day 0) and 2 days post-immunization. The mice received s.c. injections of each sample, equivalent to 100 nMol PLP/100 μL, on days 4, 7, 10. All NP samples were sonicated to disperse NPs before injection. For HA samples and controls, 100 μL of each vehicle was injected. […] Body weight was also measured daily.
Statistical differences were determined by comparing treated groups to the negative control (PBS) for clinical disease score and body weight. […]
The SAgAs and NP-Arrays were evaluated in an EAE model induced in SJL/J mice. […]

IL-17 = test: Plasma cytokine analysis (ELISA) in EAE mice: IL-17; type: in vivo, SJL/J mice
Procedure: as §2

IFN-γ = test: Plasma cytokine analysis (ELISA) in EAE mice: IFN-γ; type: in vivo, SJL/J mice
Procedure: as §2

[2] = system: EAE model induced in SJL/J mice; test: Suppression of EAE by SAgAs: cell adhesion target and size (Example 2); type: in vivo; conditions: PLP conc. 100 nMol as printed in Table 11
Procedure: as §1
Four-6 week-old SJL/J female mice were immunized subcutaneously (s.c) with […] of PLP139-151 in a 0.2 mL emulsion composed of equal volumes of complete Freund's adjuvant (CFA) containing killed Mycobacterium tuberculosis strain H37RA (final concentration of 4 mg/mL; Difco) and phosphate-buffered saline (PBS) containing PLP. The PLP139-151/CFA emulsion was administered to regions above the shoulders and the flanks (total of four sites; 50 μL at each injection site). Additionally, 200 ng/100 μL of pertussis toxin (List Biological Laboratories Inc.) was injected intraperitoneally (i.p.) on the day of immunization (day 0) and 2 days post-immunization. […] One hundred μL of each vehicle was injected for all samples and controls. […] Body weight was also measured daily.
Statistical differences were determined by comparing treated groups to the negative control (PBS) for clinical disease score and body weight. […] For individual clinical day scores and cytokine measurements T test was employed. All analyses were performed using GraphPad Software (GraphPad Software Inc.).
Efficacy of SAgAs was evaluated in the EAE model induced in SJL/J mice. The study design is outlined in Table 11 below. Typically disease onset occurs at approximately day 8 and progresses to remission around day 20. […]

[3] = parameters: species or system mice; conditions: mouse, in vivo, sc
Procedure: In Vivo Imaging. In vivo imaging was completed using the Maestro Imaging Suite. Animals were anesthetized using an isoflurane vaporizer and IR-820 labeled SAgA was injected s.c. at the base of the neck. After injection images were taken of the animal's top, left, bottom, and right side by rotating the animal in the exposure pane. The animal was imaged at defined time points over a 24 hour period to track the drainage and clearance of the SAgA from the injection site.

HSLGKWLGHPDKF-AcGAcGAc-ITDGEATDSG (HSLGKWLGHPDKF[Ahx]G[Ahx]G[Ahx]ITDGEATDSG) [PLP-BPI]
plasma TNF-α peak concentration (TNF-α): 3.1 pg/mL
Clinical Data Significance compared to PBS: % Weight loss [1]: Days 12-16, 18-22, p < 0.01
Clinical Data Significance compared to PBS: Score [1]: Day 12, p < 0.001
plasma IL-17 concentration (IL-17; day 6, PBS 23 pg/mL): 40 pg/mL
plasma IL-17 concentration (IL-17; day 12): 31 pg/mL
reduction in peak expression of IFN-γ compared to PBS controls (IFN-γ; Day 6): ~40%
average plasma concentration of IFN-γ (IFN-γ; day 6, PBS 72 pg/mL): 31 pg/mL
Clinical Significance vs PBS: % Weight loss [2]: p < 0.05, Days 16
Clinical Significance vs PBS: Score ([2]; s.c. days 4, 7, 10): p < 0.05, Days 14 & 17

Hyaluronic acid [70 kDa HA]
time of drainage/clearance of IR820-labeled material from the injection site [3]: 500 min

Hyaluronic acid [HA]
time of drainage/clearance of IR820-labeled material from the injection site [3]: ≤ 1440 min
